Measurements: US10689366B2, “Compounds for MALT1 degredation” (Cornell University, priority 2016, dated 2020)

Tests used:
MALT1 [1] = target: T1, MALT1 (Homo sapiens, UniProt Q9UDY8); assay: MALT1 degradation assay (Western blot) in OCI-Ly3 cells; type: cell-based; design: endogenous in cells; host or cells: OCI-Ly3; conditions: 48 hours, normalized to Actin, relative to vehicle treated cells, read-out: % MALT1 Degradation at 1 μM
T1 sequence (Q9UDY8 1-824): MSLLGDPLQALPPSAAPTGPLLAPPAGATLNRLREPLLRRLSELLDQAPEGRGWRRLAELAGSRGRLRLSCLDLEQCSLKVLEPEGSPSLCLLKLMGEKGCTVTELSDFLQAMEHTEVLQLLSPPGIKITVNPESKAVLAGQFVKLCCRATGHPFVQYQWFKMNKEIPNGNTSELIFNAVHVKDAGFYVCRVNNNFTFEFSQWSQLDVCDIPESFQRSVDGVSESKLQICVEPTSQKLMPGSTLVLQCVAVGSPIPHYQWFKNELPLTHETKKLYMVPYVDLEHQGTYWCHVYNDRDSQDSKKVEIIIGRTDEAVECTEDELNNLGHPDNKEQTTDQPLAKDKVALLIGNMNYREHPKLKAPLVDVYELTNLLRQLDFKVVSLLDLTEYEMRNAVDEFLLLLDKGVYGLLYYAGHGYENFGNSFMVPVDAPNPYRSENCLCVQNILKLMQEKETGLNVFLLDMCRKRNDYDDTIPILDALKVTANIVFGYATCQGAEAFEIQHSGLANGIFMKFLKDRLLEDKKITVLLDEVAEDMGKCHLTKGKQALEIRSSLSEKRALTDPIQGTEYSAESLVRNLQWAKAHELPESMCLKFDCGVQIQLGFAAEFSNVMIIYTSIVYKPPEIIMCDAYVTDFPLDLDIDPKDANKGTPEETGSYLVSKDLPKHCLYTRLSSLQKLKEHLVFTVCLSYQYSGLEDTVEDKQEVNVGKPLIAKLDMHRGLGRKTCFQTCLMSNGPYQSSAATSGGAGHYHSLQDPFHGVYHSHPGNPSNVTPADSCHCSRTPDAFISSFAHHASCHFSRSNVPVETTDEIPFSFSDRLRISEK
Protocol: In the experiments, OCI-Ly3 cells were grown for 6 hours in the presence of the indicated concentrations of Examples 1-6, 9, and 10. Proteins were extracted, analyzed by Western blot, and membranes were immunoblotted for MALT1, CRBN, and Actin. Table 3 provides the results of experimental data obtained from the example compounds of the present disclosure. In particular, OCI-Ly3 cells were grown for 48 hours in the presence of the indicated concentrations of Examples 1-19. Proteins were extracted, analyzed by Western blot, and membranes were immunoblotted for MALT1, CRBN, and Actin. Western blot bands were quantified using Image Lab software. Results were normalized to Actin expression and presented as % MALT1 degradation relative to vehicle treated cells.

MALT1 [2] = target: T1, MALT1; assay: Mechanistic validation of MALT1 degradation in wild type and CRBN knockout 293T cells (Western blot); type: cell-based; design: endogenous in cells; conditions: wild type vs CRBN knockout 293T cells, 10 μM, 24 hours; FIG. 2
Protocol: Wild type and CRBN knockout 293T cells were treated with 10 μM of Example 1 or vehicle for 24 hours, and protein lysates were collected. The protein was analyzed by Western blot and immunoassayed for MALT1, CRBN, and Actin.
Wild type and CRBN knockout 293T cells were treated with 10 μM of Example 1 or vehicle for 24 hours, and protein lysates were collected. 80 μg of protein were analyzed by Western blot and immunoassayed for MALT1, CRBN and Actin.

% MALT1 degradation at 1 µM (MALT1 [1])	Compound	CRBN-dependent MALT1 degradation (MALT1 [2])
> 50%	C[C@@H](c1c(NC(=O)Nc2cnc(-n3nccn3)c(Cl)c2)cnc2cc(Cl)nn12)N(C)C(=O)CCOCCOCCOCCN1CCN(Cc2ccc(COc3cccc4c3CN([C@H]3CCC(=O)NC3=O)C4=O)cc2)CC1 [Example 17, N-((S)-1-(2-Chloro-6-(3-(5-chloro-6-(2H-1,2,3-triazol-2-yl)pyridin-3-yl)ureido)pyrazolo[1,5-a]pyrimidin-7-yl)ethyl)-3-(2-(2-(2-(4-(4-(((2-((S)-2,6-dioxopiperidin-3-yl)-1-oxoisoindolin-4-yl)oxy)methyl)benzyl)piperazin-1-yl)ethoxy)ethoxy)ethoxy)-N-methylpropanamide]	
10 to 30%	CO[C@@H](C)c1c(NC(=O)Nc2cc(Cl)cnc2OCCNC(=O)CCOCCOCCOCCOCCC(=O)N[C@H](C(=O)N2C[C@H](O)CC2C(=O)NCc2ccc(-c3scnc3C)cc2)C(C)(C)C)cnc2cc(Cl)nn12 (stereo partly drawn) [Example 9, N^1-(2-((5-Chloro-3-(3-(2-chloro-7-((S)-1-methoxyethyl)pyrazolo[1,5-a]pyrimidin-6-yl)ureido)pyridin-2-yl)oxy)ethyl)-N^16-((2S)-1-((4R)-4-hydroxy-2-((4-(4-methylthiazol-5-yl)benzyl)carbamoyl)pyrrolidin-1-yl)-3,3-dimethyl-1-oxobutan-2-yl)-4,7,10,13-tetraoxahexadecanediamide]	
> 50%	CO[C@@H](C)c1c(NC(=O)Nc2cc(Cl)cnc2OCCNC(=O)CCOCCOCCOCCOCCNc2cccc3c2CN(C2CCC(=O)NC2=O)C3=O)cnc2cc(Cl)nn12 (stereo partly drawn) [Example 11, N-(2-((5-Chloro-3-(3-(2-chloro-7-((S)-1-methoxyethyl)pyrazolo[1,5-a]pyrimidin-6-yl)ureido)pyridin-2-yl)oxy)ethyl)-1-((2-(2,6-dioxopiperidin-3-yl)-1-oxoisoindolin-4-yl)amino)-3,6,9,12-tetraoxapentadecan-15-amide]	
> 50%	CO[C@@H](C)c1c(NC(=O)Nc2cc(Cl)cnc2OCCNC(=O)CCOCCOCCNc2cccc3c2C(=O)N(C2CCC(=O)NC2=O)C3=O)cnc2cc(Cl)nn12 (stereo partly drawn) [Example 14, N-(2-((5-Chloro-3-(3-(2-chloro-7-((S)-1-methoxyethyl)pyrazolo[1,5-a]pyrimidin-6-yl)ureido)pyridin-2-yl)oxy)ethyl)-3-(2-(2-((2-(2,6-dioxopiperidin-3-yl)-1,3-dioxoisoindolin-4-yl)amino)ethoxy)ethoxy)propanamide]	
> 50%	CO[C@@H](C)c1c(NC(=O)Nc2cc(Cl)cnc2OCCNC(=O)CCOCCOCCOCCOCCOCCOCCNc2cccc3c2C(=O)N(C2CCC(=O)NC2=O)C3=O)cnc2cc(Cl)nn12 (stereo partly drawn) [Example 15, N-(2-((5-Chloro-3-(3-(2-chloro-7-((S)-1-methoxyethyl)pyrazolo[1,5-a]pyrimidin-6-yl)ureido)pyridin-2-yl)oxy)ethyl)-1-((2-(2,6-dioxopiperidin-3-yl)-1,3-dioxoisoindolin-4-yl)amino)-3,6,9,12,15,18-hexaoxahenicosan-21-amide]	
> 50%	CO[C@@H](C)c1c(NC(=O)Nc2cc(Cl)cnc2OCCNC(=O)CCOCCOCCOCCN2CCN(Cc3ccc(COc4cccc5c4CN([C@H]4CCC(=O)NC4=O)C5=O)cc3)CC2)cnc2cc(Cl)nn12 [Example 19, N-(2-((5-Chloro-3-(3-(2-chloro-7-((S)-1-methoxyethyl)pyrazolo[1,5-a]pyrimidin-6-yl)ureido)pyridin-2-yl)oxy)ethyl)-3-(2-(2-(2-(4-(4-(((2-((S)-2,6-dioxopiperidin-3-yl)-1-oxoisoindolin-4-yl)oxy)methyl)benzyl)piperazin-1-yl)ethoxy)ethoxy)ethoxy)propanamide]	

Continued, compound first:

Compound	% MALT1 degradation at 1 µM (MALT1 [1])	CRBN-dependent MALT1 degradation (MALT1 [2])
C[C@@H](c1c(NC(=O)Nc2cnc(-n3nccn3)c(Cl)c2)cnc2cc(Cl)nn12)N(C)C(=O)CCOCCOCCOCCOCCNc1cccc2c1C(=O)N(C1CCC(=O)NC1=O)C2=O (stereo partly drawn) [Example 1, N—((S)-1-(2-Chloro-6-(3-(5-chloro-6-(2H-1,2,3-triazol-2-yl)pyridin-3-yl)ureido)pyrazolo[1,5-a]pyrimidin-7-yl)ethyl)-1-((2-(2,6-dioxopiperidin-3-yl)-1,3-dioxoisoindolin-4-yl)amino)-N-methyl-3,6,9,12-tetraoxapentadecan-15-amide]	31 to 50%	promoted CRBN-dependent MALT1 degradation
CO[C@@H](C)c1c(NC(=O)Nc2cc(Cl)cnc2OCCNC(=O)CCOCCOCCOCCOCCNc2cccc3c2C(=O)N(C2CCC(=O)NC2=O)C3=O)cnc2cc(Cl)nn12 (stereo partly drawn) [Example 3, N-(2-((5-Chloro-3-(3-(2-chloro-7-((S)-1-methoxyethyl)pyrazolo[1,5-a]pyrimidin-6-yl)ureido)pyridin-2-yl)oxy)ethyl)-1-((2-(2,6-dioxopiperidin-3-yl)-1,3-dioxoisoindolin-4-yl)amino)-3,6,9,12-tetraoxapentadecan-15-amide]	> 50%	
CO[C@@H](C)c1c(NC(=O)Nc2cnc(-n3cc(CNC(=O)CCOCCOCCOCCOCCNc4cccc5c4C(=O)N(C4CCC(=O)NC4=O)C5=O)cn3)c(Cl)c2)cnc2cc(Cl)nn12 (stereo partly drawn) [Example 2, N-((1-(3-Chloro-5-(3-(2-chloro-7-((S)-1-methoxyethyl)pyrazolo[1,5-a]pyrimidin-6-yl)ureido)pyridin-2-yl)-1H-pyrazol-4-yl)methyl)-1-((2-(2,6-dioxopiperidin-3-yl)-1,3-dioxoisoindolin-4-yl)amino)-3,6,9,12-tetraoxapentadecan-15-amide]	> 50%	
C[C@@H](c1c(NC(=O)Nc2cnc(-n3nccn3)c(Cl)c2)cnc2cc(Cl)nn12)N(C)C(=O)CCOCCOCCNc1cccc2c1CN(C1CCC(=O)NC1=O)C2=O (stereo partly drawn) [Example 4, N—((S)-1-(2-Chloro-6-(3-(5-chloro-6-(2H-1,2,3-triazol-2-yl)pyridin-3-yl)ureido)pyrazolo[1,5-a]pyrimidin-7-yl)ethyl)-3-(2-(2-((2-(2,6-dioxopiperidin-3-yl)-1-oxoisoindolin-4-yl)amino)ethoxy)ethoxy)-N-methylpropanamide]	31 to 50%	
CO[C@@H](C)c1c(NC(=O)Nc2cc(Cl)cnc2OCCNC(=O)CCOCCOCCNc2cccc3c2CN(C2CCC(=O)NC2=O)C3=O)cnc2cc(Cl)nn12 (stereo partly drawn) [Example 6, N-(2-((5-Chloro-3-(3-(2-chloro-7-((S)-1-methoxyethyl)pyrazolo[1,5-a]pyrimidin-6-yl)ureido)pyridin-2-yl)oxy)ethyl)-3-(2-(2-((2-(2,6-dioxopiperidin-3-yl)-1-oxoisoindolin-4-yl)amino)ethoxy)ethoxy)propanamide]	> 50%	
